Bridge positions count the residues as written; N and C are the ends. Ends that are not written are not given here.

The nature of data set [1]: Stability in human plasma (residual antifungal activity, inhibition zone). It is filed as in vitro ADME. The conditions noted are these: 225 μM in 100% human plasma. As to the method: The stability of blapstin in human plasma was assessed using a previously described method ([67]). Blapstin (225 μM) was mixed with 100% human plasma and incubated at 37°C for 0, 2, 4, 6, 8, 10, 15, and 24 h, respectively. Then, the residual antifungal activity against C. albicans ATCC 10231 for each incubation period was evaluated using an inhibition zone assay. Nutrient YM solid medium was coated with C. albicans ATCC 10231, and then 10-μL aliquots of the plasma-peptide mixture were added to sterile, 5-mm-diameter filter paper disks placed on the medium. After 24 h of incubation, the diameter of the inhibition zone against C. albicans ATCC 10231 was measured in triplicate.

Another data set relates to chymotrypsin. The data set is described as follows: Effect of protease on antifungal activity. To be noted: 0.5 μL of 10 mg/mL chymotrypsin with 20 μL of 225 μM peptide, 37°C, 1 h; read-out paper disk assay against C. albicans. In kind it is in vitro ADME. Here is the method: (§1) (iii) Effects of protease. In terms of the influence of protease on the antifungal activity of blapstin, trypsin and chymotrypsin were selected for the experiment, and 0.5 μL of a 10-mg/mL concentration of proteases (including trypsin and chymotrypsin) and (20 μL(225 μM) of blapstin were mixed and incubated at 37°C for 1 h ([64]). Colistin E was used as the positive control, and 1.5% NaCl was used as the negative control. Then, these samples were transferred to the paper disks in the YM solid medium with C. albicans and incubated at 37°C for 18 h for the assay of antifungal activity.

In a further data set the test system is trypsin. Description: Effect of protease on antifungal activity. In kind it is in vitro ADME. The conditions noted are these: 0.5 μL of 10 mg/mL trypsin with 20 μL of 225 μM peptide, 37°C, 1 h; read-out paper disk assay against C. albicans. Here is the method:
as §1

The subject of data set [2] is C. albicans ATCC 10231 biofilm. The data set is described as follows: Inhibition of biofilm formation (crystal violet). It is filed as cell-based, Candida albicans. To be noted: 0.5×, 1×, 2×, 4× and 8× MIC, 24 h, 37°C, absorbance at 600 nm. Here is the method: Biofilms are microbial aggregates produced by the extracellular matrix that are attached to abiotic and biotic surfaces ([57]). A biofilm inhibition assay was performed as previously described, with minor modifications, to determine the ability of blapstin to inhibit biofilm formation ([69], [70]). In brief, the concentration of C. albicans ATCC 10231 was adjusted to 1 × 10^6 CFU/mL, and 200 μL per well was added to sterile 96-well plates mixed with different concentrations of blapstin (0.5×, 1×, 2×, 4×, and 8× MIC). After incubation for 24 h at 37°C, these wells were washed three times with PBS to remove unadhered fungal cells, followed by fixation with 99% methanol for 15 min. Next, methanol was removed, and the wells were allowed to dry. Then, 100 μL of 0.1% crystal violet was added to each well for 10 min, and the plate was washed three times. Finally, 100 μL of 95% ethanol was added, and the absorbance at 600 nm was measured to assess biofilm formation. Fluconazole at 10 μM and clotrimazole at 10 μΜ were used as a positive control, and sterile 0.9% NaCl was used as a negative control.

Another data set has as its system C. albicans ATCC 10231. Description: Cryo-SEM membrane morphology. In kind it is cell-based, Candida albicans. To be noted: 1× MIC, 10 μL on filter paper disk, YM solid medium. Here is the method:
Cryo-SEM was used to examine membrane morphology as previously described with minor modifications ([65]). C. albicans ATCC 10231 was cultured in a nutrient YM solid medium. Sterilized 5-mm-diameter filter paper disks were placed on the surface of the medium, and 10 μL (1× MIC) of blapstin was added to the disks. Sterile 0.9% NaCl was used as the blank control. Fungi treated with blapstin were observed using cryo-SEM with a Quorum pp3010t system (Sigma 300; Carl Zeiss, Germany).

Another data set deals with T. rubrum. The data set is described as follows: Cryo-SEM membrane morphology. It is filed as cell-based, Trichophyton rubrum. To be noted: 1× MIC.

For “VRVGPCDQVCSRTNPEKDECCRAHGHSGHSSCYGGRMNCYG (disulfide 6-21, 10-32, 20-39 (inferred)) [Blapstin]”, the “Residual antifungal activity after incubation in human plasma” value in data set [1] (37°C, 24 h, inhibition zone against C. albicans ATCC 10231, triplicate) is recorded as “did not completely disappear”. In addition, the “Stability in human plasma” value in data set [1] (8 h at 37°C, inhibition zone against C. albicans ATCC 10231) is listed as “high stability”. Besides, the “Sensitivity of antifungal activity to protease” value with chymotrypsin and with trypsin was “insensitive” each time. In data set [2], the “Biofilm formation by C. albicans” value is “dose-dependently inhibited”. For the same sequence, the “Membrane morphology under cryo-SEM” value in the data set with C. albicans ATCC 10231 was “membrane shrinkage and disruption of the plasma membrane”; in the data set with T. rubrum, “membrane shrinkage and disruption of the plasma membrane”.

Source of the values: PMC10269622, “Blapstin, a Diapause-Specific Peptide-Like Peptide from the Chinese Medicinal Beetle Blaps rhynchopetera, Has Antifungal Function” (Microbiology Spectrum, 2023).
